Laboratory results taken from US5264423A, “Inhibitors for replication of retroviruses and for the expression of oncogene products” (The United States of America as represented by the …, priority 1992, dated 1993).
“Also recorded” adds a separate entry of the source.

Experiments:
[1] = system: HIV (HTLV-IIIB) in ATH8 cells; experiment: HIV cytopathic effect inhibition (viable ATH8 cells, trypan blue)
Experimental: FIGS. 1A-1D and Table 1, The target cells (2×10^5 ATH8 cells) in each tube were pretreated with the stated concentration of each oligomer for 16 hours and then incubated with Polybrene for 45 minutes. After centrifugation, each set of pelleted cells was exposed to HIV (500 virions per cell, which is a much higher dose than the minimal cytopathic dose) and incubated for one hour. Complete media (2 ml RPMI1640) supplemented with L-glutamine (4 mti), 2-mercaptoethanol ([…]), penicillin (50 unit/ml), and streptomycin (50 micrograms/ml), and containing 15% fetal calf serum and IL-2 (15% of conventional IL-2 from Advanced Biotechnologies, Inc., Silver Spring, MD, plus 20 unit/ml of recombinant IL-2 from Amgen Biochemicals, Thousand Oaks, CA) with the various concentrations of oligomers added. The number of viable cells were counted in a hemocytometer using the trypan blue exclusion method for day 7 following exposure to the virus. Filled columns represent non-virus exposed cells, and dotted columns represent virus exposed cells.
The HIV cytopathic effect inhibition with oligodeoxynucleotides was performed with 18 hours of pretreatment of 2×10^5 target cells (ATH8 cells) with oligos prior to exposure to HTLV-IIIB. After this pretreatment, target cells were treated with Polybrene (2 micrograms/ml) for one hour. The target cells were then, respectively, exposed to HTLV-IIIB virus (generally 500 virions per cell in this series of experiments) for one hour. The 2×10^5 cells were then diluted to 2 ml with complete media containing IL-2 and various concentrations of oligos.
The number of viable cells was counted in a hemocytometer using the trypan blue exclusion method on day 7 following exposure to the virus. Each set of data were obtained from simultaneously performed experiments so as to make a precise comparison among agents tested.
The target cells (2×10^5 ATH8 cells per tube) were preincubated with the stated concentrations of S-dC14 for 24 hours and pretreated with 2 micrograms/ml of Polybrene for 45 minutes. After centrifugation, pelleted cells were exposed to the HIV (1000 virions per cell) for one hour. The cells were incubated in 2 ml of complete media containing IL-2, and the viable cells were counted on day 13.
On day 13 after the exposure to the virus, viable cells were counted by the trypan blue dye exclusion method.

[2] = system: HIV p24 gag protein in chronically HIV-infected H9 cells; experiment: HIV gag protein expression in chronically HIV-infected H9 cells, indirect immunofluorescence; format: cell-based
Experimental: The percentage of cells expressing p24 gag protein of HIV was determined by indirect immunofluorescence microscopy by using anti-HIV p24 murine monoclonal antibody.
Generally, it has been assumed that anti-sense sequences inhibit the expression of various genes by translation arrest, i.e. that they bind to MRNA and block its translation. In order to test this possibility, gag protein synthesis was analyzed in chronically HIV-infected and -producing H9 cells by indirect immunofluorescent assay under a microscope. […] Alternatively, the level of any translation arrest could have been below the threshold of detection by indirect immunofluorescent assay under a microscope. […] Therefore, one mechanism for the antiviral effect could depend on blocking viral replication perhaps prior to, or at the stage of, pro-viral DNA synthesis.

[3] = system: de novo HIV DNA synthesis in ATH8 cells; experiment: Southern blot of de novo HIV DNA synthesis; format: cell-based; details: days 4 and 7
Description: Target cells (1×10^7 ATH8 cells) were pretreated with or without S-dC28 at various concentrations for sixteen hours, then treated with Polynrene, exposed to HIV (500 virus particles per cell), resuspended, and cultured in the presence or absence of S-dC28. On days 4 and 7 following the exposure to the virus, high molecular weight DNA was extracted, digested with Asp718 (a Kpn I isoschizomer from Boehringer-tiannheim, Indianapolis, IN), and subjected to Southern blot analysis hybridized with a labelled insert of molecular clone of the env region of HTLV-III (BH10) containing a 1.3 Kb Bgl II fragment.
FIGS. 6A-6D show the inhibitor effect of the phosphorothioate oligodeoxycytidine analog (S-dC28) on de novo HIV DNA synthesis in target cells. On days 4 and 7 following the exposure to the virus, a substantial amount of viral DNA was detected by Southern blot analysis without antiviral agents.
On day 4, shown in lanes A-E, and day 7, shown in lanes F-J, following exposure to the virus, high molecular weight DNA was extracted. Lanes A and F contain DNA from ATH8 cells that were exposed to the virus and not protected by S-dC28. Lanes B and G, C and H, D and I, contain DNA from ATH8 cells pretreated and cultured with 1 micromole, 5 micromoles, and 7 micromoles S-dC28, respectively. Lanes E and J contain DNA from ATH8 cells treated with 50 micromoles 2', 3'-dideoxyadenonsine, and lane K contains DNA from ATH8 cells that was not exposed to the virus.

endonuclease S1 = experiment: Nuclease susceptibility, S1 nuclease; format: in vitro ADME
Description: (§1) Several oligodeoxynucleotides were studied with regard to DNase sensitivity, cf. Table 5. These include cytidine homopolymers, ODN-4 (an anti-message 28-mer complementary to the 3' region of the art/trs region of HIV BH10 clone), and myc-1 (a 15-mer complementary to the initiation codon region of the C-myc oncogene). The DNases employed were predominantly endonuclease S1, the exo- and endonuclease P1, and snake venom (SV) phosphodiesterase. The concentration of S1 nuclease was ten-fold higher (100 micromoles/ml) for reactions of oligo-dc, since both the normal and PS analog were degraded extremely slowly be this enzyme. S1 and P1 nuclease digestion proceeded at 2-45 times more slowly for the S-ODNs than for the normal oligomers, with the […] being somewhat more readily digested than the 28-mer.

exo- and endonuclease P1 = experiment: Nuclease susceptibility, P1 nuclease; format: in vitro ADME
Description: as §1

[4] = system: snake venom (SV) phosphodiesterase; experiment: Nuclease susceptibility, snake venom phosphodiesterase; format: in vitro ADME
Description: as §1

[5] = system: T4 molecule in T4 cells (H9 cells); experiment: Specific binding of radiolabelled HIV to T4 molecule
Experimental: (§2) The possibility that the S-ODN analogs may interfere with HIV binding to target cells was tested.

[6] = system: T4, HLA-DR, T8, T3, or Tac antigen on the cell surface of ATH8 cells; experiment: Cell surface antigens by fluorescent-activated cytofluorometry; format: cell-based; details: 1 micromole (printed i), sixteen hours
Experimental: as §2

[7] = system: ATH8 cells (printed AT[18); experiment: Cell uptake of 35S-phosphorothioate end-labelled oligomer, ATH8 cells; format: in vitro ADME; details: within several minutes
Description: (§3) Phosphatase-resistant 35S-phosphorothioate end-labelled S-dC28 was employed to investigate the permeability of target cells.

H9 cells = experiment: Cell uptake of 35S-phosphorothioate end-labelled oligomer, H9 cells; format: in vitro ADME; details: within several minutes
Description: as §3

Solubility = format: physicochemical; details: acetate salts
Description: The phosphorothioate oligodeoxynucleotides of the present invention have suitable chemical characteristics, namely, the ability to hybridize with complementary DNA/MRNA under physiological conditions, and better solubility properties relative to methylphosphonates. Moreover, the thioesters are as soluble in biological media as the parent compounds.
Oligodeoxynucleotides with blocks of phosphorothioates at the 3' or 5' ends were synthesized by automatically changing the oxidation cycle at the required point. […] Introduction of a small amount of ammonia vapor, not aqueous ammonia, by a Pasteur PiPette solubilized all the solids. The yield determined from absorbance at lambda max was about 30%.

HL60 cells [8] = experiment: HL60 cell growth (cell count); format: cell-based
HL60 cells [9] = experiment: DNA synthesis (3H-thymidine incorporation) in HL60 cells; format: cell-based; details: 50 uM, day 1
Experimental: To obtain the results shown in FIG. 4, nonsense or antisense S-ODNs were added at a final concentration of 50 uM on day 0 to cells seeded at 3×10^5/ml. DNA synthesis was determined on day 1 by incubating cells with 1 uCi 3H-thymidine for 4 hours, after which time 10% trichloroacetic acid was added and acid precipitatable radioactivity was trapped on Sihatman glass fiber filters. The filters were subjected to liquid scintillation counting to determine levels of radioactivity.

[10] = system: c-myc protein in HL60 cells; experiment: c-myc protein reduction; format: cell-based

(dC)n n = 28 [S-dC28]
protection against the virus / antiviral activity ([1]; 0.5 micromoles): complete protection against the virus; also recorded: complete antiviral activity; also recorded: potent antiHIV activity
inhibition of viral replication and protection of ATH8 cells from HIV ([1]; 3 micromoles, day 7): 100%
in vitro therapeutic index (ratio of cytotoxic to effective concentration) ([1]; compared with dideoxycytidine and dideoxyadenosine): comparable in vitro index to those of dideoxycytidine and dideoxyadenosine
anti-HIV activity (cytopathic effect) ([1]; in words): most consistent and durable antiviral effects
Percentage of gag positive cells ([2]; 5 micro M, 8 hours in culture): 82%
Percentage of gag positive cells ([2]; 5 micro M, 24 hours in culture): 91%
Percentage of gag positive cells ([2]; 5 micro M, 72 hours in culture): 85%
Percentage of gag positive cells ([2]; 5 micro M, 120 hours in culture): 79%
Percentage of gag positive cells ([2]; 10 micro M, 8 hours in culture): 74%
Percentage of gag positive cells ([2]; 10 micro M, 24 hours in culture): 80%
Percentage of gag positive cells ([2]; 10 micro M, 72 hours in culture): 71%
Percentage of gag positive cells ([2]; 10 micro M, 120 hours in culture): 82%
Percentage of gag positive cells ([2]; 25 micro M, 8 hours in culture): 69%
Percentage of gag positive cells ([2]; 25 micro M, 24 hours in culture): 86%
Percentage of gag positive cells ([2]; 25 micro M, 72 hours in culture): 75%
Percentage of gag positive cells ([2]; 25 micro M, 120 hours in culture): 74%
gag protein positivity ([2]; concentrations as high as 25 micromoles, 120 hours): failed to reduce gag protein positivity; also recorded: did not inhibit gag protein positivity
2.7 Kb env-containing KPN I viral DNA fragment detection ([3]; 1, 5 and 7 micromoles, lanes B-D, G-I): detected only in lanes A and F
inhibition of de novo synthesis of viral DNA ([3]; concentrations as low as / down to 1 micromolar): significantly inhibited the de novo synthesis of viral DNA; also recorded: complete inhibition
Ratio = t1/2 PSoligo/t1/2 POoligo (endonuclease S1): 2
Ratio = t1/2 PSoligo/t1/2 POoligo (exo- and endonuclease P1): 15
Nuclease susceptibility, t1/2 [4]: > 27.7778 h
Ratio = t1/2 PSoligo/t1/2 POoligo [4]: > 1400
inhibition of specific binding of labelled virus to T4 [5]: No inhibition
changes in T4, HLA-DR, T8, T3, or Tac antigen [6]: no detectable changes
uptake (increase of radioactivity) [7]: Significant increases of radioactivity
uptake (increase of radioactivity) (H9 cells): Significant increases of radioactivity
solubility in 1 M NaCl (Solubility): extremely insoluble in 1 M NaCl

dAACGTTGAGGGGCAT [S-myc-1]
concentration relative to that required for the normal oligomer (HL60 cells [8]): less than 1%
duration of antiproliferative effects (HL60 cells [8]): up to three days
growth inhibition of HL60 cells at 0.1 micro M (HL60 cells [8]; 0.1 micro M): effective
effect on HL60 cell proliferation (HL60 cells [8]; in words): significant inhibition of cell proliferation
inhibition of DNA synthesis (3H-thymidine incorporation) (HL60 cells [9]): significant inhibition
Nuclease susceptibility, t1/2 (endonuclease S1): 5.5 min
Ratio = t1/2 PSoligo/t1/2 POoligo (endonuclease S1): 9
Ratio = t1/2 PSoligo/t1/2 POoligo (exo- and endonuclease P1): 4
Ratio = t1/2 PSoligo/t1/2 POoligo [4]: 443
reduction of c-myc protein [10]: reduction of c-myc protein
